Experimental data published in patent publication US20120165319A1, “INHIBITORS OF INTERLEUKIN-1 BETA CONVERTING ENZYME” (VERTEX PHARMACEUTICALS INCORPORATED, priority 1995, published 2012).

Legend:
[1] = test system: IL-1β, human peripheral blood mononuclear cells (PBMC); assay: PBMC cell assay: IL-1β assay with human PBMC or enriched adherent mononuclear cells, LPS-stimulated; type: cell-based; details: * = values obtained upon reassay
Description: IL-1β Assay with a Mixed Population of Human Peripheral Blood Mononuclear Cells (PBMC) or Enriched Adherent Mononuclear Cells
Processing of pre-IL-1β by ICE can be measured in cell culture using a variety of cell sources. Human PBMC obtained from healthy donors provides a mixed population of lymphocyte subtypes and mononuclear cells that produce a spectrum of interleukins and cytokines in response to many classes of physiological stimulators. Adherent mononuclear cells from PBMC provides an enriched source of normal monocytes for selective studies of cytokine production by activated cells.
An initial dilution series of test compound in DMSO or ethanol is prepared, with a subsequent dilution into RPMI-10% FBS media (containing 2 mM L-glutamine, 10 mM HEPES, 50 U and 50 ug/ml pen/strep) respectively to yield drugs at 4× the final test concentration containing 0.4% DMSO or 0.4% ethanol. The final concentration of DMSO is 0.1% for all drug dilutions. A concentration titration which brackets the apparent Ki for a test compound determined in an ICE inhibition assay is generally used for the primary compound screen.
Generally 5-6 compound dilutions are tested and the cellular component of the assay is performed in duplicate, with duplicate ELISA determinations on each cell culture supernatant.
PBMC Isolation and IL-1 Assay:
Buffy coat cells isolated from one pint human blood (yielding 40-45 ml final volume plasma plus cells) are diluted with media to 80 ml and LeukoPREP separation tubes (Becton Dickinson) are each overlaid with 10 ml of cell suspension. After 15 min centrifugation at 1500-1800×g, the plasma/media layer is aspirated and then the mononuclear cell layer is collected with a Pasteur pipette and transferred to a 15 ml conical centrifuge tube (Corning). Media is added to bring the volume to 15 ml, gently mix the cells by inversion and centrifuge at 300×g for 15 min. Resuspend the PBMC pellet in a small volume of media, count cells and adjust to 6×10^6 cells/ml.
For the cellular assay, 1.0 ml of the cell suspension is added to each well of a 24-well flat bottom tissue culture plate (Corning), 0.5 ml test compound dilution and 0.5 ml LPS solution (Sigma #L-3012; 20 ng/ml solution prepared in complete RPMI media; final LPS concentration 5 ng/ml). The 0.5 ml additions of test compound and LPS are usually sufficient to mix the contents of the wells. Three control mixtures are run per experiment, with either LPS alone, solvent vehicle control, and/or additional media to adjust the final culture volume to 2.0 ml. The cell cultures are incubated for 16-18 hr at 37° C. in the presence of 5% CO2.
At the end of the incubation period, cells are harvested and transferred to 15 ml conical centrifuge tubes. After centrifugation for 10 min at 200×g, supernatants are harvested and transferred to 1.5 ml Eppendorf tubes. It may be noted that the cell pellet may be utilized for a biochemical evaluation of pre-IL-1β and/or mature IL-1β content in cytosol extracts by western blotting or ELISA with pre-IL-1β specific antisera.
Isolation of Adherent Mononuclear Cells:
PBMC are isolated and prepared as described above. Media (1.0 ml) is first added to wells followed by 0.5 ml of the PBMC suspension. After a one hour incubation, plates are gently shaken and nonadherent cells aspirated from each well. Wells are then gently washed three times with 1.0 ml of media and final resuspended in 1.0 ml media. The enrichment for adherent cells generally yields 2.5−3.0×10^5 cells per well. The addition of test compounds, LPS, cell incubation conditions and processing of supernatants proceeds as described above.
We have used Quantikine kits (R&D Systems) for measurement of mature IL-1β. Assays are performed according to the manufacturer's directions. Mature IL-1β levels of about 1-3 ng/ml in both PBMC and adherent mononuclear cell positive controls are observed. […]

ICE = target: T1, ICE (Homo sapiens, UniProt P29466); assay: Enzyme assay with UV-visible substrate (visible ICE assay, Succinyl-Tyr-Val-Ala-Asp-pNitroanilide); type: biochemical; details: Table 5
T1 sequence (P29466 120-297 limits assumed): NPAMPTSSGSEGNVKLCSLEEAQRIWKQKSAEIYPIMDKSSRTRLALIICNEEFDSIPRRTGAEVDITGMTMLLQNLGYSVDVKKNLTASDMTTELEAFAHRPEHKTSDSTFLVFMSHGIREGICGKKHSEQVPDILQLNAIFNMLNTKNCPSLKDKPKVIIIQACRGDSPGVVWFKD
T1 sequence (P29466 317-404 limits assumed): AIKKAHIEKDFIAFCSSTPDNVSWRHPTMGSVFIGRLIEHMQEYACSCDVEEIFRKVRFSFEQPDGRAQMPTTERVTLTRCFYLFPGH
Description: 1. Enzyme Assay with Uv-Visible Substrate
This assay is run using an Succinyl-Tyr-Val-Ala-Asp-pNitroanilide substrate. Synthesis of analogous substrates is described by L. A. Reiter (Int. J. Peptide Protein Res. 12, 87-96 (1994)). The assay mixture contains:
The visible ICE assay is run in a 96-well microtiter plate. Buffer, ICE and DMSO (if inhibitor is present) are added to the wells in the order listed. The components are left to incubate at room temperature for 15 minutes starting at the time that all components are present in all wells. The microtiter plate reader is set to incubate at 37° C. After the 15 minute incubation, substrate is added directly to the wells and the reaction is monitored by following the release of the chromophore (pNA) at 405-603 nm at 37° C. for 20 minutes. A linear fit of the data is performed and the rate is calculated in mOD/min. DMSO is only present during experiments involving inhibitors, buffer is used to make up the volume to 100 μl in the other experiments.
For determination of enzyme inhibition constants (Ki) or the mode of inhibition (competitive, uncompetitive or noncompetitive), the rate data determined in the enzyme assays at varying inhibitor concentrations are computer-fit to standard enzyme kinetic equations (see I. H. Segel, Enzyme Kinetics, Wiley-Interscience, 1975).

SMILES | IC50 [1] | IC50 ([1]; Homo sapiens, PBMC) | Ki (ICE)
C[C@H]1CC(=O)N2CCC[C@@H](C(=O)N[C@H](C=O)CC(=O)O)N2C(=O)[C@H]1NC(=O)c1ccccc1 [Compound 257, [3S(1S,8S,9S)]3-(9-benzoylamino-6,10-dioxo-8-methyl-1,2,3,4,7,8,9,10-octahydro-6H-pyridazino-[1,2-a][1,2]diazepine-1-carboxamido)-4-oxobutanoic acid] | 6600 nM | 11000 nM | 13 nM
O=C[C@H](CC(=O)O)NC(=O)[C@@H]1CCCN2C(=O)CC[C@H](NC(=O)C3CC3)C(=O)N12 [Compound 413] | – | 6200 nM | 750 nM
COC(=O)N[C@H]1CCC(=O)N2CCC[C@@H](C(=O)N[C@H](C=O)CC(=O)O)N2C1=O [Compound 419] | – | > 8000 nM | 280 nM
CNC(=O)N[C@H]1CCC(=O)N2CCC[C@@H](C(=O)N[C@H](C=O)CC(=O)O)N2C1=O [Compound 420] | > 8000 nM | 8000 nM | 1200 nM
CCS(=O)(=O)N[C@H]1CCC(=O)N2CCC[C@@H](C(=O)N[C@H](C=O)CC(=O)O)N2C1=O [Compound 421] | 4600 nM | 4300 nM | 200 nM
O=C[C@H](CC(=O)O)NC(=O)[C@@H]1CCCN2C(=O)CC[C@H](NC(=O)C3CCCCC3)C(=O)N12 [Compound 426] | 2500 nM | 4500 nM | 90 nM
CC(=O)Nc1ccccc1C(=O)N[C@H]1CCC(=O)N2CCC[C@@H](C(=O)N[C@H](C=O)CC(=O)O)N2C1=O [Compound 430] | – | > 8000 nM | 60 nM
O=C[C@H](CC(=O)O)NC(=O)[C@@H]1CCCN2C(=O)CC[C@H](NC(=O)c3ccnc4ccccc34)C(=O)N12 [Compound 435] | – | 4400 nM | 8 nM
O=C[C@H](CC(=O)O)NC(=O)[C@@H]1CCCN2C(=O)CC[C@H](NC(=O)c3cnc4ccccc4c3)C(=O)N12 [Compound 436] | – | 2700 nM | 7.5 nM
O=C[C@H](CC(=O)O)NC(=O)[C@@H]1CCCN2C(=O)CC[C@H](NC(=O)c3ccc4ccccc4c3O)C(=O)N12 [Compound 449] | – | 1500 nM | 12 nM
COc1cccc(C(=O)N[C@H]2CCC(=O)N3CCC[C@@H](C(=O)N[C@H](C=O)CC(=O)O)N3C2=O)c1 [Compound 451] | – | 1800 nM | 4 nM
O=C[C@H](CC(=O)O)NC(=O)[C@@H]1CCCN2C(=O)CC[C@H](NC(=O)c3cccnc3)C(=O)N12 [Compound 454] | – | 2500 nM | 45 nM
O=C[C@H](CC(=O)O)NC(=O)[C@@H]1CCCN2C(=O)CC[C@H](NC(=O)c3ccc(F)c(F)c3)C(=O)N12 [Compound 458] | – | 2900 nM | 20 nM
O=C[C@H](CC(=O)O)NC(=O)[C@@H]1CCCN2C(=O)CC[C@H](NC(=O)c3ccc(F)c(Cl)c3)C(=O)N12 [Compound 459] | – | 1800 nM | 5 nM
O=C[C@H](CC(=O)O)NC(=O)[C@@H]1CCCN2C(=O)CC[C@H](NC(=O)c3ccc(F)cc3)C(=O)N12 [Compound 463] | 2800 nM | 2400 nM | 14 nM
O=C[C@H](CC(=O)O)NC(=O)[C@@H]1CCCN2C(=O)CC[C@H](NC(=O)c3ccc(Cl)c(Cl)c3)C(=O)N12 [Compound 464] | – | 1000 nM | 2.5 nM
O=C[C@H](CC(=O)O)NC(=O)[C@@H]1CCCN2C(=O)CC[C@H](NC(=O)c3cc4ccccc4o3)C(=O)N12 [Compound 467] | – | 1900 nM | 11 nM
O=C[C@H](CC(=O)O)NC(=O)[C@@H]1CCCN2C(=O)CC[C@H](NC(=O)c3ccc(CO)cc3)C(=O)N12 [Compound 479] | – | 900 nM | 15 nM
CC(=O)Nc1ccc(C(=O)N[C@H]2CCC(=O)N3CCC[C@@H](C(=O)N[C@H](C=O)CC(=O)O)N3C2=O)cc1NC(C)=O [Compound 480] | – | 2300 nM | 25 nM
COC(=O)Nc1ccc(C(=O)N[C@H]2CCC(=O)N3CCC[C@@H](C(=O)N[C@H](C=O)CC(=O)O)N3C2=O)cc1 [Compound 490] | – | 1000 nM | 4.3 nM
O=C[C@H](CC(=O)O)NC(=O)[C@@H]1CCCN2C(=O)CC[C@H](NC(=O)c3ccc(OC(=O)c4ccccc4)cc3)C(=O)N12 [Compound 491] | – | 2500 nM | 5 nM
CC(C)CC(=O)N1C[C@H](NC(=O)c2ccccc2)C(=O)N(CC(=O)N[C@H](C=O)CC(=O)O)c2ccccc21 [Compound 605f, (3S)-3-[(3S)-2-Oxo-3-benzoylamino-5-(3-methylbutyryl)-2,3,4,5-tetrahydro-1H-1,5-benzodiazepin-1-acetylamino]-4-oxo-butyric acid] | – | 12500 nM | 475 nM
CC(=O)CC(=O)N1C[C@H](NC(=O)c2ccccc2)C(=O)N(CC(=O)N[C@H](C=O)CC(=O)O)c2ccccc21 [Compound 605g, (3S)-3-[(3S)-2-Oxo-3-benzoylamino-5-acetoacetyl-2,3,4,5-tetrahydro-1H-1,5-benzodiazepin-1-acetylamino]-4-oxo-butyric acid] | – | 22500 nM | 165 nM
COC(=O)C(=O)N1C[C@H](NC(=O)c2ccccc2)C(=O)N(CC(=O)N[C@H](C=O)CC(=O)O)c2ccccc21 [Compound 605h, (3S)-3-[(3S)-2-oxo-3-benzoylamino-5-methyloxalkyl-2,3,4,5-tetrahydro-1H-1,5-benzodiazepin-1-acetylamino]-4-oxo-butyric acid] | – | > 25000 nM | 460 nM
CC(=O)C(=O)N1C[C@H](NC(=O)c2ccccc2)C(=O)N(CC(=O)N[C@H](C=O)CC(=O)O)c2ccccc21 [Compound 605i, (3S)-3-[(3S)-2-Oxo-3-benzoylamino-5-acetylcarbonyl-2,3,4,5-tetrahydro-1H-1,5-benzodiazepin-1-acetylamino]-4-oxo-butyric acid] | – | > 20000 nM | 680 nM
CS(=O)(=O)N1C[C@H](NC(=O)c2ccccc2)C(=O)N(CC(=O)N[C@H](C=O)CC(=O)O)c2ccccc21 [Compound 605m, (3S)-3-[(3S)-2-Oxo-3-benzoylamino-5-methanesulfonyl-2,3,4,5-tetrahydro-1H-1,5-benzodiazepin-1-acetylamino]-4-oxo-butyric acid] | – | 20000 nM | 650 nM
